Experimental data taken from US20160296499A1, “Spiroindoline Antiparasitic Derivatives” (ZOETIS SERVICES LLC, priority 2013, published 2016).
Like-named read-outs stand apart in the source and are kept apart here.

What was measured:
Haemonchus contortus L3 = experiment: Haemonchus contortus, Larvae Stage 3 (HcL3) In Vitro Assay; conditions: Haemonchus contortus
[1] = tested on: Dirofilaria immitis microfilariae; experiment: Dirofilaria immitis, Microfilariae (DiMF) In Vitro Assay; conditions: Dirofilaria immitis
[2] = target: T1, bovine vesicular acetylcholine transporter (VAChT) (Bos taurus, UniProt E1BK36); experiment: Radioligand Binding Assay; conditions: Bovine binding Ki, CHO-K1 membranes with recombinant bovine VAChT, [3H]Compound X6 0.3 nM
T1 sequence (E1BK36 1-524): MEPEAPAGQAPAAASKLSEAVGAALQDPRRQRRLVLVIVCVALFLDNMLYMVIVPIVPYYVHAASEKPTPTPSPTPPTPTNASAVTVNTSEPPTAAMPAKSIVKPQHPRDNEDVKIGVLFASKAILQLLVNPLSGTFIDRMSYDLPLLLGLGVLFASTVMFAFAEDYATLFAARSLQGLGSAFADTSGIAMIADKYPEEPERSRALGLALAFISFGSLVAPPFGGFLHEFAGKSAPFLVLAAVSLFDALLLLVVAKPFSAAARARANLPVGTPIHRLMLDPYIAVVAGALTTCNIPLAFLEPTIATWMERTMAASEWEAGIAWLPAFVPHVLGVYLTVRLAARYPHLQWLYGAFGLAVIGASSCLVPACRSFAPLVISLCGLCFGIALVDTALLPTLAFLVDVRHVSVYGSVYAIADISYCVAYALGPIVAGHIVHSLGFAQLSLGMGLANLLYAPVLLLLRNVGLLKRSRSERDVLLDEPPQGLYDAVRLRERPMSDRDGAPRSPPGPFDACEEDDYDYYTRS

[3] = 96 h, read-out: HcL3 MEC, Minimal Effective Concentration whereby worm motility is inhibited by approximately 70%, 37° C., tested 0.001-100 μM
[4] = 72 h, read-out: Di MF, MEC, decrease in microfilariae motility by visual assessment, curve starting at 100 μM
[5] = 96 hours, 37° C., read-out: HcL3 MEC

| Compound | minimal effective concentration (Haemonchus contortus L3; [3]) | minimal effective concentration [1, 4] | Ki [2] | minimal effective concentration (Haemonchus contortus L3; [5]) | minimal effective concentration ([1]; 72 hours, read-out: Di MF) |
| --- | --- | --- | --- | --- | --- |
| O=C(NCc1ccnc(F)c1)N1CC2(CCN(C/C=C/c3ccc(Cl)c(Cl)c3)CC2)c2cc(-c3cccnc3)ccc21 [Example 110, 1′-[(E)-3-(3,4-dichlorophenyl)allyl]-N-[(2-fluoro-4-pyridyl)methyl]-5-(3-pyridyl)spiro[indoline-3,4′-piperidine]-1-carboxamide] | 69.1 µM | 3.3 µM | 7820 nM | – | – |
| O=C(NCc1ccnc(F)c1)N1CC2(CCN(C/C=C/c3ccc(Cl)c(Cl)c3)CC2)c2cc(-c3cn[nH]c3)ccc21 [Example 111, 1′-[(E)-3-(3,4-dichlorophenyl)allyl]-N-[(2-fluoro-4-pyridyl)methyl]-5-(1H-pyrazol-4-yl)spiro[indoline-3,4′-piperidine]-1-carboxamide] | 100 µM | 10 µM | 3380 nM | – | – |
| O=C(NCc1ccnc(F)c1)N1CC2(CCN(C/C=C/c3ccc(Cl)c(Cl)c3)CC2)c2cc(-c3cncnc3)ccc21 [Example 112, 1′-[(E)-3-(3,4-dichlorophenyl)allyl]-N-[(2-fluoro-4-pyridyl)methyl]-5-pyrimidin-5-yl-spiro[indoline-3,4′-piperidine]-1-carboxamide] | 100 µM | 4.4 µM | 3340 nM | – | – |
| N#Cc1ccc2c(c1)C1(CCN(C/C=C/c3ccc(Cl)c(Cl)c3)CC1)CN2C(=O)NCc1ccnc(F)c1 [Example 113, 5-cyano-1′-[(E)-3-(3,4-dichlorophenyl)allyl]-N-[(2-fluoro-4-pyridyl)methyl]spiro[indoline-3,4′-piperidine]-1-carboxamide] | 1 µM | 2.4 µM | 66.8 nM | – | – |
| Cc1cccc2c1C1(CCN(C/C=C/c3ccc(Cl)c(Cl)c3)CC1)CN2C(=O)NCc1ccnc(F)c1 [Example 114, 1′-[(E)-3-(3,4-dichlorophenyl)allyl]-N-[(2-fluoro-4-pyridyl)methyl]-4-methyl-spiro[indoline-3,4′-piperidine]-1-carboxamide] | 5.7 µM | 10 µM | 241 nM | – | – |
| N#Cc1cncc(-c2ccc3c(c2)C2(CCN(C/C=C/c4ccc(Cl)cc4)CC2)CN3C(=O)NCc2ccnc(F)c2)c1 [Example 115, 1′-[(E)-3-(4-chlorophenyl)allyl]-5-(5-cyano-3-pyridyl)-N-[(2-fluoro-4-pyridyl)methyl]spiro[indoline-3,4′-piperidine]-1-carboxamide] | 100 µM | 7.6 µM | 3930 nM | – | – |
| N#Cc1ccc(-c2ccc3c(c2)C2(CCN(C/C=C/c4ccc(Cl)c(Cl)c4)CC2)CN3C(=O)NCc2ccnc(F)c2)cn1 [Example 116, 5-(6-cyano-3-pyridyl)-1′-[(E)-3-(3,4-dichlorophenyl)allyl]-N-[(2-fluoro-4-pyridyl)methyl]spiro[indoline-3,4′-piperidine]-1-carboxamide] | 5 µM | 4 µM | 58.5 nM | – | – |
| COc1ccc2ccc(CN3CCC4(CC3)CN(C(=O)NCc3ccnc(F)c3)c3ccc(C#N)cc34)c(C)c2n1 [Example 117, 5-cyano-N-[(2-fluoro-4-pyridyl)methyl]-1′-[(2-methoxy-8-methyl-7-quinolyl)methyl]spiro[indoline-3,4′-piperidine]-1-carboxamide] | 10 µM | 10 µM | 191 nM | – | – |
| COc1ccc2ccc(CN3CCC4(CC3)CN(C(=O)NCc3ccnc(Cl)c3)c3ccc(C#N)cc34)c(C)c2n1 [Example 118, N-[(2-chloro-4-pyridyl)methyl]-5-cyano-1′-[(2-methoxy-8-methyl-7-quinolyl)methyl]spiro[indoline-3,4′-piperidine]-1-carboxamide] | 3.3 µM | 57.4 µM | 28.4 nM | – | – |
| COc1ccc(-c2ccc3c(c2)C2(CCN(C/C=C/c4ccc(Cl)cc4)CC2)CN3C(=O)NCc2ccnc(Cl)c2)cn1 [Example 119, 1′-[(E)-3-(4-chlorophenyl)allyl]-N-[(2-chloro-4-pyridyl)methyl]-5-(6-methoxy-3-pyridyl)spiro[indoline-3,4′-piperidine]-1-carboxamide] | 100 µM | 10 µM | 177 nM | – | – |
| N#Cc1ccc(-c2ccc3c(c2)C2(CCN(C/C=C/c4ccc(C(F)(F)F)cc4)CC2)CN3C(=O)NCc2ccnc(Cl)c2)cn1 [Example 120, N-[(2-chloro-4-pyridyl)methyl]-5-(6-cyano-3-pyridyl)-1′-[(E)-3-[4-(trifluoromethyl)phenyl]allyl]spiro[indoline-3,4′-piperidine]-1-carboxamide] | 100 µM | 1.2 µM | 13900 nM | – | – |
| O=C(NCc1ccnc(Cl)c1)N1CC2(CCN(C/C=C/c3ccc(Cl)cc3)CC2)c2c(OC(F)(F)F)ccc(Cl)c21 [Example 121, (E)-7-chloro-1′-(3-(4-chlorophenyl)allyl)-N-((2-chloropyridin-4-yl)methyl)-4-(trifluoromethoxy)spiro[indoline-3,4′-piperidine]-1-carboxamide] | 100 µM | 6.9 µM | 1260 nM | – | – |
| O=C(NCc1ccnc(Cl)c1)N1CC2(CCN(C/C=C/c3ccc(Cl)cc3)CC2)c2c(F)cc(C(F)(F)F)cc21 [Example 122, (E)-1′-(3-(4-chlorophenyl)allyl)-N-((2-chloropyridin-4-yl)methyl)-4-fluoro-6-(trifluoromethyl)spiro[indoline-3,4′-piperidine]-1-carboxamide] | – | – | 32.3 nM | 0.5 µM | 10 µM |
| Cc1ccc2c(c1)C1(CCN(C/C=C/c3ccc(Cl)c(Cl)c3)CC1)CN2C(=O)NCc1ccnc(Cl)c1 [Example 123, (E)-N-((2-chloropyridin-4-yl)methyl)-1′-(3-(3,4-dichlorophenyl)allyl)-5-methylspiro[indoline-3,4′-piperidine]-1-carboxamide] | – | – | 20.8 nM | 1 µM | 10.2 µM |
| O=C(NCc1ccnc(Cl)c1)N1CC2(CCN(C/C=C/c3ccc(C(F)(F)F)cn3)CC2)c2ccc(C(F)(F)F)cc21 [Example 124, (E)-N-((2-chloropyridin-4-yl)methyl)-6-(trifluoromethyl)-1′-(3-(5-(trifluoromethyl)pyridin-2-yl)allyl)spiro[indoline-3,4′-piperidine]-1-carboxamide] | 1 µM | 10 µM | 106 nM | – | – |
| COc1ccc(/C=C/CN2CCC3(CC2)CN(C(=O)NCc2ccnc(Cl)c2)c2cc(C(F)(F)F)ccc23)cc1 [Example 125, (E)-N-((2-chloropyridin-4-yl)methyl)-1′-(3-(4-methoxyphenyl)allyl)-6-(trifluoromethyl)spiro[indoline-3,4′-piperidine]-1-carboxamide] | 1 µM | 10 µM | 20.4 nM | – | – |
| O=C(NCc1ccnc(Cl)c1)N1CC2(CCN(C/C=C/c3ccc(Cl)cc3)CC2)c2cc(F)c(C(F)(F)F)cc21 [Example 126, (E)-1′-(3-(4-chlorophenyl)allyl)-N-((2-chloropyridin-4-yl)methyl)-5-fluoro-6-(trifluoromethyl)spiro[indoline-3,4′-piperidine]-1-carboxamide] | – | – | 33 nM | 1 µM | 10 µM |
| O=C(NCc1ccnc(F)c1)N1CC2(CCN(C/C=C/c3ccc(Cl)cc3)CC2)c2ccc(OC(F)(F)F)cc21 [Example 127, (E)-1′-(3-(4-chlorophenyl)allyl)-N-((2-fluoropyridin-4-yl)methyl)-6-(trifluoromethoxy)spiro[indoline-3,4′-piperidine]-1-carboxamide] | 1 µM | 10 µM | 78.4 nM | – | – |
| O=C(NCc1ccnc(Cl)c1)N1CC2(CCN(C/C=C/c3ccc(C(F)(F)F)cc3)CC2)c2cc(Cl)c(F)cc21 [Example 128, (E)-5-chloro-N-((2-chloropyridin-4-yl)methyl)-6-fluoro-1′-(3-(4-(trifluoromethyl)phenyl)allyl)spiro[indoline-3,4′-piperidine]-1-carboxamide] | 1 µM | 3.3 µM | 44 nM | – | – |
| O=C(NCc1ccnc(Cl)c1)N1CC2(CCN(C/C=C/c3ccc(Cl)c(Cl)c3)CC2)c2cc(F)c(C(F)(F)F)cc21 [Example 129, (E)-N-((2-chloropyridin-4-yl)methyl)-1′-(3-(3,4-dichlorophenyl)allyl)-5-fluoro-6-(trifluoromethyl)spiro[indoline-3,4′-piperidine]-1-carboxamide] | – | – | 32.8 nM | 1.5 µM | 10 µM |
